Results on 17 compounds are retold here after patent US8404738B2 (Hoffmann-La Roche Inc., priority 2011, dated 2013).

One test addresses T1, HDAC6 (Homo sapiens, UniProt Q9UBN7).
T1 construct: endogenous in cells; host or cells: A549 cells
T1 sequence (Q9UBN7 1-1215): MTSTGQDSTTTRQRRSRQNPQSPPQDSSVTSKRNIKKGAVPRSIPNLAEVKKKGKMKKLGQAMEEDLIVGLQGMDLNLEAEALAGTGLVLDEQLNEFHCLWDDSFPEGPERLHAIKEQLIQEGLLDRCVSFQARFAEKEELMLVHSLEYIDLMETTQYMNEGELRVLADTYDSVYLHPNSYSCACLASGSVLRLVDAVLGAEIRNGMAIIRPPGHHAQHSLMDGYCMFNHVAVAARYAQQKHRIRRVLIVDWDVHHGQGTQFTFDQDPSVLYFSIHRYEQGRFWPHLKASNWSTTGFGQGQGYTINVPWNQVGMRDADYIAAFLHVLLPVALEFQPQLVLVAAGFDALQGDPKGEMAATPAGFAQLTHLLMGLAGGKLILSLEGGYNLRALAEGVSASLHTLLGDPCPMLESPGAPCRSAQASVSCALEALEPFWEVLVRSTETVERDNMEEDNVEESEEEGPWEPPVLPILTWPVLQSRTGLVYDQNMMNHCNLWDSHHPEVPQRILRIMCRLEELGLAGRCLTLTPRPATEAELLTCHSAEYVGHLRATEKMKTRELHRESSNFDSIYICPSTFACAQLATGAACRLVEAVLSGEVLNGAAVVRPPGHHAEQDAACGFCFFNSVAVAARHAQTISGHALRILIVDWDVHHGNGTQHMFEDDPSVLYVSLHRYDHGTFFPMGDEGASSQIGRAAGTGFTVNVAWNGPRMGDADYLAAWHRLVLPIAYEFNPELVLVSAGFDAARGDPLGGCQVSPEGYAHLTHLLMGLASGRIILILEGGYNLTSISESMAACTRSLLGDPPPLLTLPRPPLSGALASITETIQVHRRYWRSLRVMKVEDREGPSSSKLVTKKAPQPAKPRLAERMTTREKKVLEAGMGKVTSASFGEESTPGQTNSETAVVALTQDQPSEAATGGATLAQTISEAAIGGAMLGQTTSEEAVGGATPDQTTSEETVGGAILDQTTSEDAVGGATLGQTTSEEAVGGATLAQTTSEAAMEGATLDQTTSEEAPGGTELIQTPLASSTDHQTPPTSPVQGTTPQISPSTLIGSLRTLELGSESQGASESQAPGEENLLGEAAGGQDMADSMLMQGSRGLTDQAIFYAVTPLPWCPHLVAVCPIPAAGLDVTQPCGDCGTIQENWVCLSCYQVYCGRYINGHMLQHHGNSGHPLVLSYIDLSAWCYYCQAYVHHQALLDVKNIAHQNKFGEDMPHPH
The test is described as follows: Tubulin acetylation cytoblot assay (A549 cells). The format is cell-based. The following applies: 17-18 h incubation, tubulin acetylation as marker of HDAC6 inhibition, read-out: Tub-Ac EC50. The method in brief: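 Cells were exposed to compound for 17-18 h, then fixed with formaldehyde and permeabilized with cold MeOH. They were probed for 4 h at 4° C with anti-acetylated tubulin plus HRP anti-mouse IgG (each 1:750), and read by ECL luminescence. EC50 values came from curves normalized to top and bottom controls.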

Test [1] has as its system p21 promoter-luciferase construct. The test is described as follows: p21 reporter gene induction (HeLa cells, p21 promoter-luciferase construct).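 For all read-outs here: transfected HeLa cells exposed to compound for 15 h, luciferase luminescence read from lysates, p21 promoter lacks p53 site, proxy for cellular HDAC1/2/3 inhibition.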 Conditions: for p21 RP3: relative gene level of p21 compared to MS275 at 3 μM; for p21 RP10: relative level of p21 compared to MS275 at 10 μM; for p21 RP30: relative level of p21 compared to MS275 at 30 μM. For orientation: Reporter assays use an easily measured gene product as a stand-in for the process of interest.
Protocol: As a surrogate for in-cell HDAC1/2/3 inhibition, p21 induction was used as a counterscreen to evaluate the selectivity of the compounds in the present invention toward HDAC6 or HDAC8.
The novel compounds of the present invention were tested for their ability to induce p21 gene expression using a reporter gene assay involving HeLa cells transfected with a p21 promoter-luciferase construct. The p21 promoter contained the Sp1/Sp3 binding site for HDAC but not the upstream p53 binding site. Briefly, the day before transfection, HeLa cells were seeded at 11,000 cells/well in a 96-well culture plate and incubated at 37° C. in 5% CO2 overnight. A transfection media was prepared prior to transfection according to the following procedure: (1) 5 μl serum-free DMEM, 0.15 μl Fugene 6 reagent, 40 ng p21-luc, 10 ng GFP were mixed gently and incubated at rt for 30 minutes; (2), then 98 μl DMEM (with 10% FBS, 1% penicillin and streptomycin) was added to the DNA: Fugene 6 reagent complex and mixed gently. For transfection, the medium was removed and replaced with 100 μl/well transfection media which was prepared according to the procedure above. After incubating the cells for 24 hours at 37° C. in 5% CO2, fresh media and test compounds were added to the wells and the cells further incubated for 15 hours at 37° C. in 5% CO2. Cells were lysed by adding 80 μl/well of a cell culture lysis reagent (Promega). 50 μl of each lysate was taken for GFP detection using an excitation wavelength of 486 nm and detection at 527 nm. 100 μl luciferase assay reagent (Promega) was then added to every 20 μl cell lysate for luminometer detection.

A further test has as its target T2, recombinant human HDAC8 (Homo sapiens, UniProt Q9BY41).
T2 construct: made in house; host or cells: insect cells
T2 sequence (Q9BY41 1-377): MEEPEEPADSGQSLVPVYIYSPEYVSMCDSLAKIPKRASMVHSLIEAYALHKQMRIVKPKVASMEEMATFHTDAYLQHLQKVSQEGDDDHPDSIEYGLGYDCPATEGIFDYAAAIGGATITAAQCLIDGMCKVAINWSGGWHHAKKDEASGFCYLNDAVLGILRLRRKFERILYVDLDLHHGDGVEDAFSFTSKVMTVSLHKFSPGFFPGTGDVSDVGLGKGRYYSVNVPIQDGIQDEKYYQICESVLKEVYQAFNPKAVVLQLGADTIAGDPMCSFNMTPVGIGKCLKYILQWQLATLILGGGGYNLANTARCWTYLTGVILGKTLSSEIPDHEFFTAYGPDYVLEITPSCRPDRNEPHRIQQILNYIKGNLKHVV
The test is described as follows: HDAC8 inhibition: recombinant HDAC8 fluorometric assay. The class given is biochemical. Conditions: recombinant human HDAC8, substrate Ac-Arg-His-Lys-Lys(ε-acetyl)-AMC; read-out: HDAC8 IC50. The method in brief:
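Recombinant human HDAC8 from insect cells was preincubated with compound for 15 min at rt, then given Ac-Arg-His-Lys-Lys(ε-acetyl)-AMC substrate for 30 min at rt. IC50 came from normalized percent inhibition with curve fitting.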

What is called EC50 is the concentration at which the effect is half-maximal. In general, IC50 refers to the point on the concentration scale where inhibition reaches its midpoint. Turning to `CC(C)(c1ccc(-c2ccccc2)cc1)N1CCC(Nc2ccc(C(=O)NO)cc2)C1=O` (stereo not shown) [Example 51, 4-[1-(1-Biphenyl-4-yl-1-methyl-ethyl)-2-oxo-pyrrolidin-3-ylamino]-N-hydroxy-benzamide], the EC50 on HDAC6 stood at 8990 nM. In test [1], the “p21 RP3” value is −0.14, the “p21 RP10” value is on record as 0.60 and the “p21 RP30” value turned out to be 0.38. Also, at recombinant human HDAC8, the IC50 amounted to 910 nM.

As for `CC(C)(c1cccc2ccccc12)N1CCC(Nc2ccc(C(=O)NO)cc2)C1=O` (stereo not shown) [Example 52, N-Hydroxy-4-[1-(1-methyl-1-naphthalen-1-yl-ethyl)-2-oxo-pyrrolidin-3-ylamino]-benzamide], the EC50 on HDAC6 was 2820 nM. Besides, in test [1], the “p21 RP3” value was determined as 0.14, the “p21 RP10” value is given as 0.53 and the “p21 RP30” value is recorded as 0.58. Further, the IC50 at recombinant human HDAC8 was 1050 nM.

Regarding `CC(C)(c1ccc2ccccc2c1)N1CCC(Nc2ccc(C(=O)NO)cc2)C1=O` (stereo not shown) [Example 53, N-Hydroxy-4-[1-(1-methyl-1-naphthalen-2-yl-ethyl)-2-oxo-pyrrolidin-3-ylamino]-benzamide], on HDAC6, the EC50 turned out to be 3320 nM. In addition, in test [1], the “p21 RP3” value is on record as 2.37, the “p21 RP10” value came out at 1.21 and the “p21 RP30” value turned out to be 0.13. The IC50 on recombinant human HDAC8 stood at 380 nM.

As to `O=C(NO)c1ccc(NC2CCN(C3(c4ccccc4)CCCC3)C2=O)cc1` (stereo not shown) [Example 55, N-Hydroxy-4-[2-oxo-1-(1-phenyl-cyclopentyl)-pyrrolidin-3-ylamino]-benzamide], the EC50 on HDAC6 came to 4750 nM. In test [1], the “p21 RP3” value is on record as 0.43, the “p21 RP10” value came to 0.20 and the “p21 RP30” value is 0.50. The IC50 on recombinant human HDAC8 came to 820 nM.

For `O=C(NO)c1ccc(NC2CCN(C3(c4ccccc4)CCCCC3)C2=O)cc1` (stereo not shown) [Example 56, N-Hydroxy-4-[2-oxo-1-(1-phenyl-cyclohexyl)-pyrrolidin-3-ylamino]-benzamide], at HDAC6, the EC50 is 2820 nM. Further, in test [1], the “p21 RP3” value was found to be 0.37, the “p21 RP10” value amounted to 0.07 and the “p21 RP30” value came out at 0.14. Besides, the IC50 on recombinant human HDAC8 was 1110 nM.

Regarding `CC1(Nc2ccc(C(=O)NO)cc2)CCN(c2ccccc2)C1=O` (stereo not shown) [Example 57, N-Hydroxy-4-(3-methyl-2-oxo-1-phenyl-pyrrolidin-3-ylamino)-benzamide], the EC50 on HDAC6 was 2640 nM. For the same compound, in test [1], the “p21 RP3” value amounted to 0.05, the “p21 RP10” value is reported as 0.03 and the “p21 RP30” value stood at 0.01. Moreover, the IC50 at recombinant human HDAC8 is 2970 nM.

In the case of `CC1(Nc2ccc(C(=O)NO)cc2)CCN(c2cccc(F)c2)C1=O` (stereo not shown) [Example 58, 4-[1-(3-Fluoro-phenyl)-3-methyl-2-oxo-pyrrolidin-3-ylamino]-N-hydroxy-benzamide], the EC50 at HDAC6 was 1000 nM. For the same compound, in test [1], the “p21 RP3” value was 0.50, the “p21 RP10” value was 0.13 and the “p21 RP30” value amounted to 0.07. Also, on recombinant human HDAC8, the IC50 came out at 910 nM.

`CC1(Nc2ccc(C(=O)NO)cc2)CCN(c2cccc(Cl)c2)C1=O` (stereo not shown) [Example 59, 4-[1-(3-Chloro-phenyl)-3-methyl-2-oxo-pyrrolidin-3-ylamino]-N-hydroxy-benzamide]: at HDAC6, the EC50 is 300 nM. In addition, in test [1], the “p21 RP3” value is given as 0.23, the “p21 RP10” value amounted to 0.22 and the “p21 RP30” value is on record as 0.24. Further, on recombinant human HDAC8, the IC50 is 160 nM.

Turning to `CC1(Nc2ccc(C(=O)NO)cc2)CCN(c2cnc3ccccc3c2)C1=O` (stereo not shown) [Example 61, N-Hydroxy-4-(3-methyl-2-oxo-1-quinolin-3-yl-pyrrolidin-3-ylamino)-benzamide], the EC50 at HDAC6 stood at 8250 nM. In test [1], the “p21 RP3” value was determined as 0.46, the “p21 RP10” value was 0.09 and the “p21 RP30” value turned out to be 0.17. In addition, the IC50 on recombinant human HDAC8 was 1420 nM.

For `CC1(Nc2ccc(C(=O)NO)cc2)CCN(c2cccc3cccnc23)C1=O` (stereo not shown) [Example 62, N-Hydroxy-4-(3-methyl-2-oxo-1-quinolin-8-yl-pyrrolidin-3-ylamino)-benzamide], at HDAC6, the EC50 worked out at 1930 nM. Also, in test [1], the “p21 RP3” value is reported as 0.55, the “p21 RP10” value was 0.11 and the “p21 RP30” value stood at 0.20. Besides, the half-inhibitory concentration (IC50) at recombinant human HDAC8 is 710 nM.

As for `CC1(Nc2ccc(C(=O)NO)cc2)CCN(c2ccc3ncccc3c2)C1=O` (stereo not shown) [Example 63, N-Hydroxy-4-(3-methyl-2-oxo-1-quinolin-6-yl-pyrrolidin-3-ylamino)-benzamide], the EC50 on HDAC6 worked out at 360 nM. Besides, in test [1], the “p21 RP3” value is 0.47, the “p21 RP10” value is on record as 0.15 and the “p21 RP30” value came to 0.22. For the same compound, the IC50 at recombinant human HDAC8 was determined as 890 nM.

With `CC1(Nc2ccc(C(=O)NO)cc2)CCN(C(C)(C)c2ccccc2)C1=O` (stereo not shown) [Example 64, N-Hydroxy-4-[3-methyl-1-(1-methyl-1-phenyl-ethyl)-2-oxo-pyrrolidin-3-ylamino]-benzamide], the EC50 on HDAC6 was determined as 10200 nM. For the same compound, in test [1], the “p21 RP3” value came to 0.30, the “p21 RP10” value worked out at 0.04 and the “p21 RP30” value was found to be 0.02. The IC50 on recombinant human HDAC8 was determined as 320 nM.

For `O=C(NO)c1ccc(NC2CCN(c3ccccc3)C2=O)cc1F` (stereo not shown) [Example 66, 2-Fluoro-N-hydroxy-4-(2-oxo-1-phenyl-pyrrolidin-3-ylamino)-benzamide], the EC50 on HDAC6 came to 2420 nM. In test [1], the “p21 RP3” value is recorded as 0.01, the “p21 RP10” value is on record as 0.01 and the “p21 RP30” value is given as 0.00. Besides, the IC50 at recombinant human HDAC8 worked out at 1250 nM.

In the case of `O=C(NO)c1ccc(NC2CCN(c3cccc(Cl)c3)C2=O)cc1F` (stereo not shown) [Example 67, 4-[1-(3-Chloro-phenyl)-2-oxo-pyrrolidin-3-ylamino]-2-fluoro-N-hydroxy-benzamide], on HDAC6, the EC50 came out at 6230 nM. Besides, in test [1], the “p21 RP3” value is 0.40, the “p21 RP10” value is 0.17 and the “p21 RP30” value came to 0.02. The IC50 on recombinant human HDAC8 is 2120 nM.

In the case of `O=C(NO)c1ccc(NC2CCN(c3ccccc3)C2=O)c(Cl)c1` (stereo not shown) [Example 69, 3-Chloro-N-hydroxy-4-(2-oxo-1-phenyl-pyrrolidin-3-ylamino)-benzamide], on HDAC6, the EC50 stood at 8230 nM. Besides, in test [1], the “p21 RP3” value amounted to 0.36, the “p21 RP10” value worked out at 0.15 and the “p21 RP30” value is −0.03. Moreover, the IC50 on recombinant human HDAC8 came to 850 nM.

`O=C(NO)c1ccc(NC2CC(=O)N(c3cccc(Cl)c3)C2)cc1` (stereo not shown) [Example 72, 4-[1-(3-Chloro-phenyl)-5-oxo-pyrrolidin-3-ylamino]-N-hydroxy-benzamide]: the EC50 on HDAC6 turned out to be 2340 nM. In test [1], the “p21 RP3” value is reported as 0.16, the “p21 RP10” value worked out at 0.14 and the “p21 RP30” value came to 0.09. Also, the IC50 on recombinant human HDAC8 worked out at 1480 nM.

For the compound `COc1cccc(N2CC(Nc3ccc(C(=O)NO)cc3)CC2=O)c1` (stereo not shown) [Example 74, N-Hydroxy-4-[1-(3-methoxy-phenyl)-5-oxo-pyrrolidin-3-ylamino]-benzamide], at HDAC6, the EC50 amounted to 1840 nM. In test [1], the “p21 RP3” value is recorded as −0.07, the “p21 RP10” value amounted to 0.07 and the “p21 RP30” value came out at 0.12. For the same compound, the IC50 at recombinant human HDAC8 is 1010 nM.
